{"source": "patent US20060217447A1", "about": "“Wood preservative formulations comprising dichlorophen” (priority 2005, published 2006)", "test_system": "decay organisms", "assay": "Soil contact veneer exposure test: dip-treated Scots pine sapwood veneers in damp compost, pulled by hand weekly until failure", "conditions": "for Half life for fungicide at 2% active ingredient (ai): Example 3; for Half life for fungicide at 2% active ingredient (ai) / Half life for fungicide at 2% ai: 2% single biocide; for average time for failure to occur, Quat Only: 0.36% active quaternary ammonium compound in deionised water", "from_the_text": "The present invention also provides a simple exposure test for evaluating the wood preserving abilities of candidate ingredients or compositions. This exposure test is based on the premise that small dimension timber test specimens tend to fail more quickly than larger ones in soil contact situations.\nIt is preferable that the thickness of the veneers be greater than 0.1 mm, as veneers of lesser thickness can often be pulled apart by hand without undergoing exposure to decay organisms. Veneers which are thicker than 0.4 may take an excessive amount of time to fail the exposure test. In one embodiment, the thickness of the veneers is about 0.2 mm and the wood is the sapwood of the Scots pine (Pinus sylvestris). Other woods and thicknesses can be used. […] An example of convenient width and length dimensions are 15×50 mm. However, width and length are not critical provided they are kept consistent within a test, although very large or small length or width dimensions may be difficult to handle.\nAccordingly, the test of the present invention comprises testing the integrity of a veneer after exposure to a decay-inducing environment. In one embodiment, this environment is damp compost in which decay organisms are present and water is present at just above the water holding capacity of the compost. If desired, other media can be used, and the test can be conducted at water contents which are below, at, or above the water-holding capacity of the media.\nIn general, the integrity of the veneer is inversely related to the length of exposure to the decay promoting environment. The integrity of the veneer can be tested by applying a force to the veneer and noting whether or not the veneer breaks. Thus, if wood preservative agents are applied to the veneers, these veneers would be expected to withstand longer exposure to the environment without breaking compared to control veneers without breaking.\nThe force applied to the veneers is preferably a force which pulls the two ends in opposite directions. The force can be applied by the use of an instrument or manually. If there is significant decay the veneer will break, generally near the junction between the portion submerged in the decay accelerating medium and the portion exposed to air. If the force is applied manually, it is preferable that the same individual conduct the test at the various exposure time points.\nThe veneers were cut such that both late wood and early wood were present in each veneer. The following biocides were tested: dichlorophen, fenarimol, imazalil sulfate, and PHMB.\nTest solutions were prepared and sets of veneers were dip treated such that there were 6 replicate veneers for each treatment under investigation. Additionally six veneers were dip treated in deionised water to act as water controls. […] Plastic containers (approximately 350×220 mm by at least 60 mm high) were part filled with John Innes Number 2 potting compost at a little above its water holding capacity. The veneers for a particular test were placed in six rows within a container such that approximately half the veneer was below the compost and half above. The veneers were placed in the compost such than those given a particular treatment were distributed throughout the container and were not grouped together. The containers, compost and veneers were weighed then incubated at about 30° C. and near 100% relative humidity in an incubator. Each week during the test the assembly was reweighed and deionised water added to bring it back to its original mass. After 3 weeks each veneer was examined in turn. It was held between the fingers at each end and pulled to see if it could be broken. If it could be pulled apart a failure was recorded. If the veneer was sound, this was recorded and the veneer was returned to its original position. After a further one week incubation all sound veneers were assessed again as described above, with the same person conducting the assessments.", "key": {"[1]": {"conditions": "Example 8, solutions in IMS (alcohol), single biocide at 0.8%"}, "[2]": {"conditions": "Example 8, solutions in IMS (alcohol), single biocide at 1.6%"}, "[3]": {"conditions": "Example 5, solutions in IMS (alcohol)"}, "[4]": {"conditions": "Example 6, solutions in IMS (alcohol), single biocide at 0.8%"}, "[5]": {"conditions": "Example 6, solutions in IMS (alcohol), single biocide at 1.6%"}, "[6]": {"conditions": "Example 1, single biocide at 0.8% in treatment solution, 6 replicate veneers"}, "[7]": {"conditions": "Example 7, solutions in acetone, single biocide at 0.8%"}, "[8]": {"conditions": "Example 7, solutions in acetone, single biocide at 1.6%"}, "[9]": {"conditions": "Example 4, solutions in acetone"}}, "note": "Several values for one entry are separate records, joined by “and”; a condition that tells them apart may be missing. Identical values can stand only once."}
{"compound": "O=C(Nc1ccccc1)c1ccccc1O", "note": "[Salicylanilide, 2-hydroxy-N-phenylbenzamide]", "values": [{"measurement": "Half life for fungicide at 2% active ingredient (ai)", "setting": "solutions in IMS (alcohol)", "value": 14.00, "unit": "weeks"}, {"measurement": "Calculated half life", "setting": "[1]", "value": 4.83, "unit": "weeks"}, {"measurement": "Calculated half life", "setting": "[2]", "value": 5.83, "unit": "weeks"}]}
{"compound": "CCCCCCCCCCCCN(CCCN)CCCN", "note": "[Triameen, N,N-bis(3-aminopropyl) dodecylamine]", "values": [{"measurement": "Half life for fungicide at 2% ai", "setting": "[3]", "value": 5.50, "unit": "weeks"}]}
{"compound": "COC(=O)N(OC)c1ccccc1COc1ccn(-c2ccc(Cl)cc2)n1", "note": "[Pyraclostrobin, methyl N-{2-[1-(4-chlorophenyl)-1H-pyrazol-3-yloxymethyl]phenyl}(N-methoxy)carbamate]", "values": [{"measurement": "Half life for fungicide at 2% ai", "setting": "[3]", "value": 5.67, "unit": "weeks"}]}
{"compound": "N,N-didecyl-N-methyl-poly(oxyethyl) ammonium propionate [Bardap 26]", "values": [{"measurement": "average time for failure to occur, Quat Only", "setting": "Example 2", "value": 5.0, "unit": "weeks"}, {"measurement": "Calculated half life", "setting": "[4]", "value": 5.17, "unit": "weeks"}, {"measurement": "Calculated half life", "setting": "[5]", "value": 6.00, "unit": "weeks"}]}
{"compound": "1H-imidazole, 1-(2-(2,4-dichlorphenyl)-2-(2-propenyloxy)ethyl)-,sulfate [Imazalil Sulphate]", "values": [{"measurement": "average time for failure to occur", "setting": "Example 1, single biocide at 0.4% in treatment solution", "value": 5.2, "unit": "weeks"}, {"measurement": "Half life for fungicide at 2% ai", "setting": "[3]", "value": 7.83, "unit": "weeks"}, {"measurement": "Calculated half life", "setting": "[4]", "value": 7.00, "unit": "weeks"}, {"measurement": "Calculated half life", "setting": "[5]", "value": 8.00, "unit": "weeks"}]}
{"compound": "Poly(hexamethylenebiguanide) hydrochloride [PHMB]", "values": [{"measurement": "average time for failure to occur", "setting": "[6]", "value": 4.8, "unit": "weeks"}, {"measurement": "Calculated half life", "setting": "[1]", "value": 5.00, "unit": "weeks"}, {"measurement": "Calculated half life", "setting": "[2]", "value": 5.50, "unit": "weeks"}]}
{"compound": "CC(Cc1ccc(C(C)(C)C)cc1)CN1C[C@@H](C)O[C@@H](C)C1", "note": "(stereo partly drawn) [Fenpropimorph, cis-4-[3-[4-(1,1-dimethylethyl)phenyl]-2-methylpropyl]-=2,6-dimethylmorpholine]", "values": [{"measurement": "Half life for fungicide at 2% active ingredient (ai)", "setting": "solutions in IMS (alcohol)", "value": 6.17, "unit": "weeks"}, {"measurement": "Calculated half life", "setting": "[7]", "value": 3.67, "unit": "weeks"}, {"measurement": "Calculated half life", "setting": "[8]", "value": 4.33, "unit": "weeks"}]}
{"compound": "CC(C1CC1)C(O)(Cn1cncn1)c1ccc(Cl)cc1", "note": "(stereo not drawn) [Cyproconazole, α-(4-chlorophenyl)-α-(1-cyclopropylethyl)-=1H-1,2,4-triazol-1-ethanol]", "values": [{"measurement": "Half life for fungicide at 2% active ingredient (ai)", "setting": "solutions in IMS (alcohol)", "value": 6.67, "unit": "weeks"}, {"measurement": "Calculated half life", "setting": "[7]", "value": 4.33, "unit": "weeks"}, {"measurement": "Calculated half life", "setting": "[8]", "value": 4.50, "unit": "weeks"}]}
{"compound": "CCCC1COC(Cn2cncn2)(c2ccc(Cl)cc2Cl)O1", "note": "(stereo not drawn) [Propiconazole, 1-[[2-(2,4-dichlorophenyl)-4-propyl-1,3-dioxolan-2-yl]=methyl]-1H-1,2,4-triazole]", "values": [{"measurement": "Half life for fungicide at 2% ai", "setting": "[9]", "value": 6.33, "unit": "weeks"}, {"measurement": "Calculated half life", "setting": "[7]", "value": 5.67, "unit": "weeks"}, {"measurement": "Calculated half life", "setting": "[8]", "value": 6.00, "unit": "weeks"}]}
{"compound": "OC(c1ccc(Cl)cc1)(c1cncnc1)c1ccccc1Cl", "note": "(racemic) [Fenarimol, (±)-2,4′-dichloro-α-(pyrimidin-5-yl) benzhydryl alcohol]", "values": [{"measurement": "average time for failure to occur", "setting": "[6]", "value": "~7.2 weeks and 7.2 weeks"}, {"measurement": "Half life for fungicide at 2% active ingredient (ai)", "setting": "solutions in IMS (alcohol)", "value": 7.33, "unit": "weeks"}]}
{"compound": "OB(O)O", "note": "[Boric acid]", "values": [{"measurement": "Calculated half life", "setting": "[1]", "value": 4.17, "unit": "weeks"}, {"measurement": "Calculated half life", "setting": "[2]", "value": 4.50, "unit": "weeks"}]}
{"compound": "CCCCCCCCCCCCCN1CC(C)OC(C)C1", "note": "(stereo not drawn) [Tridemorph, 4-alkyl-2,6-dimethylmorpholine]", "values": [{"measurement": "Half life for fungicide at 2% active ingredient (ai)", "setting": "solutions in IMS (alcohol)", "value": 5.83, "unit": "weeks"}]}
{"compound": "CCCCCCCCCC[N+](C)(C)CCCCCCCCCC.[Cl-]", "note": "[DDAC, didecyl dimethyl ammonium chloride]", "values": [{"measurement": "average time for failure to occur, Quat Only", "setting": "Example 2", "value": 4.2, "unit": "weeks"}, {"measurement": "Half life for fungicide at 2% ai", "setting": "[3]", "value": 5.50, "unit": "weeks"}, {"measurement": "Calculated half life", "setting": "[4]", "value": 5.17, "unit": "weeks"}, {"measurement": "Calculated half life", "setting": "[5]", "value": 6.67, "unit": "weeks"}]}
{"compound": "N#Cc1c(Cl)c(Cl)c(Cl)c(C#N)c1Cl", "note": "[Chlorothalonil, 2,4,5,6-tetrachloro-1,3-benzenedicarbonitrile]", "values": [{"measurement": "Calculated half life", "setting": "[7]", "value": 9.33, "unit": "weeks"}, {"measurement": "Calculated half life", "setting": "[8]", "value": 12.33, "unit": "weeks"}]}
{"compound": "Oc1ccc(Cl)cc1Cc1cc(Cl)ccc1O", "note": "[Dichlorophen, 2,2′-methylenebis [4-chlorophenol]]", "values": [{"measurement": "average time for failure to occur", "setting": "Example 1, 0.6% dichlorophen alone", "value": 9.5, "unit": "weeks"}, {"measurement": "average time for failure to occur", "setting": "Example 2, 0.60% dichlorophen, no quat", "value": 5.7, "unit": "weeks"}, {"measurement": "Half life for fungicide at 2% active ingredient (ai)", "setting": "solutions in IMS (alcohol)", "value": 15.67, "unit": "weeks"}, {"measurement": "Half life for fungicide at 2% ai", "setting": "[9]", "value": 18.17, "unit": "weeks"}, {"measurement": "Half life for fungicide at 2% ai", "setting": "[3]", "value": 17.00, "unit": "weeks"}, {"measurement": "Calculated half life", "setting": "[4]", "value": 11.33, "unit": "weeks"}, {"measurement": "Calculated half life", "setting": "[5]", "value": 14.50, "unit": "weeks"}, {"measurement": "Calculated half life", "setting": "[7]", "value": 8.67, "unit": "weeks"}, {"measurement": "Calculated half life", "setting": "[8]", "value": 10.83, "unit": "weeks"}, {"measurement": "Calculated half life", "setting": "[1]", "value": 7.83, "unit": "weeks"}, {"measurement": "Calculated half life", "setting": "[2]", "value": 11.67, "unit": "weeks"}]}
{"compound": "CCCCCCCCn1sc(Cl)c(Cl)c1=O", "note": "[RH 287, 4,5-dichloro-2-n-octyl-3(2H)-isothiazolone]", "values": [{"measurement": "Calculated half life", "setting": "[7]", "value": 10.00, "unit": "weeks"}, {"measurement": "Calculated half life", "setting": "[8]", "value": 16.83, "unit": "weeks"}]}
{"compound": "alkyl dimethyl benzyl ammonium chloride [BAC]", "values": [{"measurement": "Half life for fungicide at 2% ai", "setting": "[3]", "value": 5.00, "unit": "weeks"}, {"measurement": "Calculated half life", "setting": "[1]", "value": 5.00, "unit": "weeks"}, {"measurement": "Calculated half life", "setting": "[2]", "value": 5.00, "unit": "weeks"}]}
